In patent US20070009503A1, “Antibiotic, Compositions Containing the Antibiotic, and Methods for Administering the Antibiotic and/or Said Compositions to Livestock” (priority 2004, published 2007):
Where no end group is shown, it is not given here.

Test system: Lactobacillus sakei JCM1157
Test: Growth inhibition zones on MRS agar plates containing protease Umamizyme G, overlaid with indicator strain
Assay type: cell-based
Settings: Example 2, protease 0 U/mL
Method: The lactic acid bacterium Weissella sp. AJ110263 (FERM P-19577), isolated from fermented milk matsoon, and the lactic acid bacteria Pediococcus pentosaceus JCM5885, Pediococcus pentosaceus JCM5890, Lactobacillus plantarum JCM1149, and Lactobacillus salivarius JCM1231, obtained from type cultures, were precultured and cultured on MRS liquid medium (Table 1 above). The culture temperature was 30° C. for Weissella sp. and 37° C. for the other strains. The above lactic acid bacteria were inoculated onto and cultured for 24 hours on MRS agar medium plates to which “Umamizyme G”, a protease derived from Aspergillus, had been added in quantities of 0 U/mL (none added), 200 U/ML, and 400 U/mL. In culturing, 100 mL of MRS medium was added to a 500 mL Sakaguchi flask, […] was inoculated, and the medium was shaken 100 times/min.
These plates were cultured for 24 hours at 30° C., resulting in the formation of growth inhibition zones in the indicator strains (Table 10 below).
Lactococcus lactis NCD0497 (a bacterium producing nisin A) and Lactococcus lactis NCIMB702054 (a bacterium producing nisin Z) were separately cultured in MRS liquid medium at 30° C. In the same manner as in Example 1, antibiotic evaluation was conducted using Lactobacillus sakei strain JCM1157 as an indicator strain. […]

In the case of “Nisin A: nisin A 1,000 IU/mL solution made by ICN Biomedical, spotted without bacterial strains (ITSISLCTPGCKTGALMGCNMKTATCHCSIHVSK; also: lantibiotic, lanthionine bridges and dehydro residues not placed; UniProt P13068 24-57, looked up)”, the “diameters of the proliferation inhibition zones” value is reported as 30.
